# System: HO-1 protein
# Assay: Renal cortical HO-1 protein (ELISA) after FeS, SnPP, B12
# Type: in vivo, CD-1 mice
# Details: 4 hrs and 18 hrs after IV injection
# Protocol: Effects of FeS, SnPP, and B12 on renal cortical induction of heme oxygenase 1(HO-1). The following experiments assessed the effects of FeS, SnPP, and B12 on the possible induction of the cytoprotective protein HO-1. To this end, mice were injected with each of these agents, as noted above. Either 4 or 18 hrs later, they were anesthetized and the kidneys were removed through a midline abdominal incision. The renal cortices were dissected on ice and then extracted for protein and mRNA. The samples were then assayed for HO-1 protein by ELISA, and HO-1 mRNA by RT-PCR, factored by GAPDH levels. Five normal mice provided control values.
substance,measurement,value
cyanocobalamin [B12],HO-1 protein increases (FIG. 21),marked HO-1 protein increases within 4 hrs and persists for 18 hrs

# Reference: patent US20190358242A1, “COMPOSITIONS, KITS, AND METHODS TO INDUCE ACQUIRED CYTORESISTANCE USING STRESS PROTEIN INDUCERS” (FRED HUTCHINSON CANCER RESEARCH CENTER, priority 2017, published 2019)
